Molecules are shown by their SMILES.

For one molecule, pH results are on record in US11976065B2 (CELISTA PHARMACEUTICALS LLC, priority 2020, dated 2024).

The nature of this data set: pH of the samples in water, pH probe. It counts as physicochemical. As to conditions: aqueous sample.

`CC(C)Cn1cnc2c(N)nc3ccccc3c21` [Imiquimod, 1-(2-methylpropyl)-1H-imidazo[4,5-c]quinolin-4-amine] showed a pH of 7.10.
